This passage reports TGI results from PubChem BioAssay (NCI).

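Growth conditions: 96-well plates. Treatment: test compound, 48 hours, 5 concentrations. Analysis: linear interpolation between bracketing concentrations; unreached endpoints set to highest concentration. The concentration for full growth arrest is given as TGI.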 A value given as a limit tells only on which side of the number the result lay.

Test systems include DLD-1 colon; P388 leukemia; DMS 114 small cell lung; XF 498 CNS; SN12K1 renal; P388/ADR leukemia; M19-MEL melanoma; RXF-631 renal.
What all share (assay): NCI tumour cell line growth inhibition, 48 h

For the compound `Cc1cn(C2CC(O)C(CO)O2)c(=O)[nH]c1=O` (stereo not given), the TGI in the test with DLD-1 colon is > 5000 µM; with P388 leukemia, 1970 µM; in the test on DMS 114 small cell lung, > 4670 µM; in the test on XF 498 CNS, 366 µM; in the test on SN12K1 renal, 4530 µM; in the test on P388/ADR leukemia, 2650 µM. Besides, the TGI in the test on M19-MEL melanoma is > 5000 µM.
In the case of `CSc1nsc(-c2ccccc2)[s+]1`, the TGI in the test on DLD-1 colon, in the test on RXF-631 renal and with M19-MEL melanoma was > 100 µM throughout.
